A short description of the data set: Solubility and structural stability of peptides. It is filed as physicochemical. The conditions noted are these: effect of adding HR2 hydrophilic residues to the LK21 N-terminus; qualitative.

For `CC[C@H](C)[C@H](NC(=O)[C@H](Cc1ccc(O)cc1)NC(=O)[C@H](Cc1c[nH]c2ccccc12)NC(=O)[C@H](CC(C)C)NC(=O)[C@H](Cc1c[nH]c2ccccc12)NC(=O)[C@H](CC(N)=O)NC(=O)[C@@H](NC(=O)[C@@H](NC(=O)[C@H](CC(N)=O)NC(=O)[C@H](Cc1ccccc1)NC(=O)[C@H](Cc1c[nH]c2ccccc12)NC(=O)[C@H](CC(N)=O)NC(=O)[C@H](Cc1c[nH]c2ccccc12)NC(=O)[C@H](CC(C)C)NC(=O)[C@H](CO)NC(=O)[C@H](C)NC(=O)[C@H](Cc1c[nH]c2ccccc12)NC(=O)[C@H](CCCCN)NC(=O)[C@H](CC(=O)O)NC(=O)[C@H](CC(C)C)NC(=O)[C@H](CCC(=O)O)NC(=O)[C@H](CC(C)C)NC(=O)[C@H](CC(C)C)NC(=O)[C@H](CCC(=O)O)NC(=O)[C@H](CCC(N)=O)NC(=O)[C@H](CCC(=O)O)NC(=O)[C@H](CC(N)=O)NC(=O)[C@H](CCCCN)NC(=O)[C@H](CCC(=O)O)NC(C)=O)[C@@H](C)CC)[C@@H](C)O)C(=O)N[C@@H](CCCCN)C(N)=O` [EK30], the “solubility and structural stability” value is listed as “greatly enhanced”.
As to “Ac-EESQNQQEKNEQELLELDKWASLWNWFNITNWLWYIK-NH2 [EK37]”, the “solubility and structural stability” value was “greatly enhanced”.
The same measure for `CC[C@H](C)[C@H](NC(=O)[C@H](Cc1ccc(O)cc1)NC(=O)[C@H](Cc1c[nH]c2ccccc12)NC(=O)[C@H](CC(C)C)NC(=O)[C@H](Cc1c[nH]c2ccccc12)NC(=O)[C@H](CC(N)=O)NC(=O)[C@@H](NC(=O)[C@@H](NC(=O)[C@H](CC(N)=O)NC(=O)[C@H](Cc1ccccc1)NC(=O)[C@H](Cc1c[nH]c2ccccc12)NC(=O)[C@H](CC(N)=O)NC(=O)[C@H](Cc1c[nH]c2ccccc12)NC(=O)[C@H](CC(C)C)NC(=O)[C@H](CO)NC(=O)[C@H](C)NC(=O)[C@H](Cc1c[nH]c2ccccc12)NC(=O)[C@H](CCCCN)NC(=O)[C@H](CC(=O)O)NC(=O)[C@H](CC(C)C)NC(=O)[C@H](CCC(=O)O)NC(=O)[C@H](CC(C)C)NC(=O)[C@H](CC(C)C)NC(=O)[C@H](CCC(=O)O)NC(=O)[C@H](CCC(N)=O)NC(C)=O)[C@@H](C)CC)[C@@H](C)O)C(=O)N[C@@H](CCCCN)C(N)=O` [QK26]: “greatly enhanced”.

The record behind these values is paper PMC4521866 (PLoS ONE, 2015).
